Reference: patent publication US8580842B2, “Heteroaryl-substituted 1,3-dihydroindol-2-one derivatives and medicaments containing them” (Abbott GmbH & Co. KG, priority 2003, dated 2013)
Where a name gives a salt, the structure may show the parent alone.

These compounds were tested against T1, human V1b receptors (Homo sapiens, UniProt P47901) (assay: Vasopressin V1b receptor binding assay). Conditions: membranes from CHO-K1 cells expressing human V1b receptors, displacement of 1.5 nM 3H-AVP; read-out: Binding affinity for the vasopressin V1b receptor.
T1 construct: expressed in transfected cells; host or cells: CHO-K1 (membrane preparation V1b-3H2)
T1 sequence (P47901 1-424): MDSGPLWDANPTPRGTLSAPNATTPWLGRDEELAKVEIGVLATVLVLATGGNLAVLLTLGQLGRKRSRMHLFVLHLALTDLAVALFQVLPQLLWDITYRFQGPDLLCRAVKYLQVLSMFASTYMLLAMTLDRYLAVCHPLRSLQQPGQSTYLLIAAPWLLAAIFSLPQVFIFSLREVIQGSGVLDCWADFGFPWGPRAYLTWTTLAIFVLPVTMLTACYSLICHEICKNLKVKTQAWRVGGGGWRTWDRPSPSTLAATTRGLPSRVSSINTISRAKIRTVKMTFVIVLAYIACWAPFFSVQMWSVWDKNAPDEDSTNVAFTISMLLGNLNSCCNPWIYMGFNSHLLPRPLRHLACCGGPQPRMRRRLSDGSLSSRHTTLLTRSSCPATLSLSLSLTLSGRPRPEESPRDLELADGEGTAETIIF
Protocol: Vasopressin V1b Receptor Binding Assay
The binding of the compounds of this invention to the vasopressin V1b receptor was determined with the following assay:
Compounds were dissolved in a concentration of 10^−2 M or 10^−3 M in DMSO. Further dilutions were performed with water.
The procedure for the binding assay was based on the method of Tahara et al. (Tahara A et al., Brit. J. Pharmacol. 125, 1463-1470 (1998)). Assays (0.250 ml) consisted of membranes (58 μg protein) from CHO-K1 cells permanently expressing human V1b receptors (preparation V1b-3H2, containing protease inhibitors, Roche complete Mini #1836170), 1.5 nM ^3H-AVP (8-Arg-vasopressin, NET 800) in incubation buffer (total binding) and different concentrations of test compound (displacement). Non-specific binding was defined with 10^−6 M AVP. Assays were performed in triplicate.
Incubation buffer: 50 mM Tris, 10 mM MgCl2, 0.1% BSA adjusted to pH 7.4 with HCl.
After incubation, 60 min at room temperature, bound and free radioligand was separated by filtration under vacuum through Whatman GF/B glass fibre mats using a Skatron cell harvester 7000.
Liquid scintillation counting was performed in beta-counters, Tricarb model 2000 or 2200CA (Packard). Dpm were calculated by a programme with standardisation using a standard quench series.
Evaluation of binding parameters was performed by non-linear regression analysis with SAS. The strategy of this program is similar to the program LIGAND described by Munson and Rodbard (Munson PJ and Rodbard D, Analytical Biochem 107, 220-239 (1980)).

Row | Ki [nM] | SMILES
1 | 50 to 500 | COc1ccc(S(=O)(=O)N2C(=O)C(c3cccnc3OC)(N3CC[C@H]3C(=O)N(C)C)c3cc(Cl)ccc32)c(OC)c1 (single isomer, unassigned) [Example 255]
2 | < 50 | COc1ccccc1C1(N2C[C@H](O)C[C@H]2C(=O)N(C)C)C(=O)N(S(=O)(=O)c2sccc2OC)c2ccc(Cl)cc21 (single isomer, unassigned) [Example 256]
3 | < 50 | COc1ncccc1C1(N2C[C@H](O)C[C@H]2C(=O)N(C)C)C(=O)N(S(=O)(=O)c2cccs2)c2ccc(Cl)cc21 (single isomer, unassigned) [Example 270]
4 | 50 to 500 | COc1ncccc1C1(N2C[C@H](O)C[C@H]2C(=O)N(C)C)C(=O)N(S(=O)(=O)c2cccs2)c2ccc(C#N)cc21 (single isomer, unassigned) [Example 277]
5 | < 50 | COc1ccc(C2(N3C[C@H](O)C[C@H]3C(=O)N(C)C)C(=O)N(S(=O)(=O)c3cccs3)c3ccc(Cl)cc32)c(OC)n1 (single isomer, unassigned) [Example 280]
6 | 50 to 500 | COc1ncc(C2(N3C[C@H](O)C[C@H]3C(=O)N(C)C)C(=O)N(S(=O)(=O)c3cccs3)c3ccc(Cl)cc32)c(OC)n1 (single isomer, unassigned) [Example 281]
7 | < 50 | COc1ncc(C2(N3C[C@H](O)C[C@H]3C(=O)N(C)C)C(=O)N(S(=O)(=O)c3ccc(C)cn3)c3ccc(Cl)cc32)c(OC)n1 (single isomer, unassigned) [Example 282]
8 | 50 to 500 | COc1ccsc1S(=O)(=O)N1C(=O)C(c2cccnc2OC)(N2C[C@H](O)C[C@H]2C(=O)N(C)C)c2cc(OC(F)(F)F)ccc21 (single isomer, unassigned) [Example 286]
9 | < 50 | COc1ncccc1C1(N2C[C@H](O)C[C@H]2C(=O)N(C)C)C(=O)N(S(=O)(=O)c2cccc3cccnc23)c2ccc(Cl)cc21 (single isomer, unassigned) [Example 288]
10 | 50 to 500 | COc1ccccc1C1(N2C[C@H](O)C[C@H]2C(=O)N(C)C)C(=O)N(S(=O)(=O)c2cc(Br)c(Cl)s2)c2ccc(Cl)cc21 (stereo partly drawn) [Example 33, (2S,4R)-1-[1-(4-Bromo-5-chloro-thiophene-2-sulfonyl)-5-chloro-3-(2-methoxy-phenyl)-2-oxo-2,3-dihydro-1H-indol-3-yl]-4-hydroxy-pyrrolidine-2-carboxylic acid dimethylamide trifluoroacetate]
11 | > 500 | COc1ccccc1C1(N2C[C@H](O)C[C@H]2C(=O)N(C)C)C(=O)N(S(=O)(=O)c2cnc(Cl)c(Br)c2)c2ccc(Cl)cc21 (stereo partly drawn) [Example 59, (2S,4R)-1-[5-Chloro-1-(5-bromo-6-chloropyridine-3-sulfonyl)-3-(2-methoxy-phenyl)-2-oxo-2,3-dihydro-1H-indol-3-yl]-4-hydroxy-pyrrolidine-2-carboxylic acid dimethylamide]
12 | > 500 | COc1ccc(S(=O)(=O)N2C(=O)C(OC(=O)Nc3ccc(Cl)cc3)(c3sccc3C)c3cc(Cl)ccc32)c(OC)c1 (stereo not shown) [Example 63, (4-Chloro-phenyl)-carbamic acid 5-chloro-1-(2,4-dimethoxy-benzenesulfonyl)-3-(3-methyl-thiophen-2-yl)-2-oxo-2,3-dihydro-1H-indol-3-ylester]
13 | 50 to 500 | COc1ccccc1C1(OC(=O)N2CCCCC2)C(=O)N(S(=O)(=O)c2cccc3cccnc23)c2ccc(Cl)cc21 (stereo not shown) [Example 65, Piperidine-1-carboxylic acid 5-chloro-3-(2-methoxy-phenyl)-2-oxo-1-(quinoline-8-sulfonyl)-2,3-dihydro-1H-indol-3-yl ester]
14 | < 50 | COc1ccccc1C1(OC(=O)N2CCN(C3CCN(C)CC3)CC2)C(=O)N(S(=O)(=O)c2cccc3cccnc23)c2ccc(Cl)cc21 (stereo not shown) [Example 75, 4-(1-Methyl-piperidin-4-yl)-piperazine-1-carboxylic acid 5-chloro-3-(2-methoxy-phenyl)-2-oxo-1-(quinoline-8-sulfonyl)-2,3-dihydro-1H-indol-3-yl ester bismethanesulfonate]
15 | < 50 | COc1ncccc1C1(OC(=O)N2CCN(C3CCN(C)CC3)CC2)C(=O)N(S(=O)(=O)c2ccccc2)c2ccc(Cl)cc21 (stereo not shown) [Example 76, 4-(1-Methyl-piperidin-4-yl)-piperazine-1-carboxylic acid 1-benzenesulfonyl-5-chloro-3-(2-methoxy-pyridin-3-yl)-2-oxo-2,3-dihydro-1H-indol-3-yl ester]
16 | < 50 | COc1ccc(S(=O)(=O)N2C(=O)C(NC(=O)C3CCN(c4ccncc4)CC3)(c3cccnc3OC)c3cc(Cl)ccc32)c(OC)c1 (stereo not shown) [Example 82, 3,4,5,6-Tetrahydro-2H-[1,4′]bipyridinyl-4-carboxylic acid [5-chloro-1-(2,4-dimethoxy-benzenesulfonyl)-3-(2-methoxy-pyridin-3-yl)-2-oxo-2,3-dihydro-1H-indol-3-yl]-amide]
17 | < 50 | CCOc1ccccc1C1(NC(=O)N2CCN(C3CCN(C)CC3)CC2)C(=O)N(S(=O)(=O)c2cccc3cccnc23)c2ccc(OC)cc21 (stereo not shown) [Example 83, 4-(1-Methyl-piperidin-4-yl)-piperazine-1-carboxylic acid [3-(2-ethoxy-phenyl)-5-methoxy-2-oxo-1-(quinoline-8-sulfonyl)-2,3-dihydro-1H-indol-3-yl]-amide]
18 | < 50 | COc1ncccc1C1(OC(=O)N2CCC(N3CCN(C)CC3)CC2)C(=O)N(S(=O)(=O)c2ccccc2)c2ccc(Cl)cc21 (stereo not shown) [Example 103, 4-(4-Methyl-piperazin-1-yl)-piperidine-1-carboxylic acid 1-benzenesulfonyl-5-chloro-3-(2-methoxy-pyridin-3-yl)-2-oxo-2,3-dihydro-1H-indol-3-yl ester]
19 | < 50 | COc1ccc(S(=O)(=O)N2C(=O)C(OC(=O)N3CCN(C4CCN(C)CC4)CC3)(c3ccccn3)c3cc(Cl)ccc32)c(OC)c1 (stereo not shown) [Example 104, 4-(1-Methyl-piperidin-4-yl)-piperazine-1-carboxylic acid 5-chloro-1-(2,4-dimethoxy-benzenesulfonyl)-2-oxo-3-pyridin-2-yl-2,3-dihydro-1H-indol-3-yl ester trishydrochloride]
20 | < 50 | COc1ccc(S(=O)(=O)N2C(=O)C(OC(=O)N3CCN(C4CCN(C)CC4)CC3)(c3cccnc3OC)c3cc(Cl)ccc32)c(OC)c1 (stereo not shown) [Example 105, 4-(1-Methyl-piperidin-4-yl)-piperazine-1-carboxylic acid 5-chloro-1-(2,4-dimethoxy-benzenesulfonyl)-3-(2-methoxy-pyridin-3-yl)-2-oxo-2,3-dihydro-1H-indol-3-yl ester]
21 | < 50 | COc1ccc(S(=O)(=O)N2C(=O)C(OC(=O)N3CCC(N4CCN(C)CC4)CC3)(c3cccnc3OC)c3cc(C)ccc32)c(OC)c1 (stereo not shown) [Example 107, 4-(4-Methyl-piperazin-1-yl)-piperidine-1-carboxylic acid 1-(2,4-dimethoxy-benzenesulfonyl)-3-(2-methoxy-pyridin-3-yl)-5-methyl-2-oxo-2,3-dihydro-1H-indol-3-yl ester]
22 | < 50 | COc1ncccc1C1(OC(=O)N2CCN(C3CCN(C)CC3)CC2)C(=O)N(S(=O)(=O)c2ccc(C#N)cc2)c2ccc(Cl)cc21 (stereo not shown) [Example 113, 4-(1-Methyl-piperidin-4-yl)-piperazine-1-carboxylic acid 5-chloro-1-(4-cyano-benzenesulfonyl)-3-(2-methoxy-pyridin-3-yl)-2-oxo-2,3-dihydro-1H-indol-3-yl ester diacetate]
